Laboratory results from US20230159467A1, “NOVEL COMPOUNDS USEFUL IN THE TREATMENT AND/OR PREVENTION OF A DISEASE, DISORDER OR CONDITION ASSOCIATED WITH ANGIOTENSIN II” (Vicore Pharma AB, priority 2020, published 2023).

How the values were obtained:
human AT2R = target: T1, human AT2R (Homo sapiens, UniProt P50052); assay type: binding; settings: HEK-293 cell membranes
T1 construct: host or cells: HEK-293
T1 sequence (P50052 1-363): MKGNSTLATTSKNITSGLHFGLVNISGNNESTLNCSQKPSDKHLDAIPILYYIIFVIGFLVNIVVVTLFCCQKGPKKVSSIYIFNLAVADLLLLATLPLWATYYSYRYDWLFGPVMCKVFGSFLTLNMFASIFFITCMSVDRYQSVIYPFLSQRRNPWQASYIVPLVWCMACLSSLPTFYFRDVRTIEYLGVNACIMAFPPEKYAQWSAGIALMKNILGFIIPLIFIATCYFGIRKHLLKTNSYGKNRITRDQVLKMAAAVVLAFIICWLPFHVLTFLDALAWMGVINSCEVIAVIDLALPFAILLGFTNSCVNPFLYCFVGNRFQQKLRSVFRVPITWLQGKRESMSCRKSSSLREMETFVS

human AT1R = target: T2, human AT1R (Homo sapiens, UniProt P30556); assay type: binding; settings: HEK-293 cell membranes
T2 construct: host or cells: HEK-293
T2 sequence (P30556 1-359): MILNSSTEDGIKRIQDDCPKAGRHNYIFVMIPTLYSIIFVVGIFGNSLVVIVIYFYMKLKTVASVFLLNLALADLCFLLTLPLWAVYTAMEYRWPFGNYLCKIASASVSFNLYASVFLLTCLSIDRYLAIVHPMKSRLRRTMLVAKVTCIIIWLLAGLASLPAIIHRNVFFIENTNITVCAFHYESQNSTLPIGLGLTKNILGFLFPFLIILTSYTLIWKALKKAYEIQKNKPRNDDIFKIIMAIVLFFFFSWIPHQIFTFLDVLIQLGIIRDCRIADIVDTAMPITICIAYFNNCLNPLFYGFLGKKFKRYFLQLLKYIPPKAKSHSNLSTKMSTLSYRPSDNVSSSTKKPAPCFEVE

Row | Ki (human AT2R) [nM] | Ki (human AT1R) [µM] | Compound
1 | 15 | ~10 | CCCCOC(=O)NS(=O)(=O)c1ccc(CC(C)C)cc1-c1ccc(Cn2ccnc2C(C)(C)C)cc1 [Example 2A, Butyl ((4′-((2-(tert-butyl)-1H-imidazol-1-yl)methyl)-5-isobutyl-[1,1′-biphenyl]-2-yl)sulfonyl)carbamate]
2 | 2.22 |  | CCCCOC(=O)NS(=O)(=O)c1ccc(CC(C)C)cc1-c1ccc(Cn2ccnc2C(C)C)cc1 [Example 37A, Butyl ((5-isobutyl-4′-((2-(isopropan-2-yl)-1H-imidazol-1-yl)methyl)-[1,1′-biphenyl]-2-yl)sulfonyl)carbamate]
3 | 5.64 |  | CCCCOC(=O)NS(=O)(=O)c1ccc(CC(C)C)cc1-c1ccc(Cn2ccnc2C2CC2)cc1 [Example 38A, Butyl ((5-isobutyl-4′-((2-(cyclopropan-2-yl)-1H-imidazol-1-yl)methyl)-[1,1′-biphenyl]-2-yl)sulfonyl)carbamate]
4 | 4.8 |  | COC(=O)NS(=O)(=O)c1ccc(CC(C)C)cc1-c1ccc(Cn2ccnc2C2CC2)cc1 [Example 39A, Methyl ((5-isobutyl-4′-((2-(cyclopropan-2-yl)-1H-imidazol-1-yl)methyl)-[1,1′-biphenyl]-2-yl)sulfonyl)carbamate]
5 | 9.62 |  | CCCCOC(=O)NS(=O)(=O)c1sc(CC(C)C)cc1-c1ccc(Cn2ccnc2C(C)(C)O)cc1 [Example 40A]

Second part, the compound before the results:

Row | Compound | Ki (human AT2R) [nM] | Ki (human AT1R) [µM]
6 | CCCc1nc(-c2ccc(Cn3ccnc3C(C)(C)C)cc2)c(S(=O)(=O)NC(=O)OC)s1 [Example 5, Methyl ((4-(4-((2-(tert-butyl)-1H-imidazol-1-yl)methyl)phenyl)-2-propylthiazol-5-yl)sulfonyl)carbamate] | 190 | ~1
7 | CCCCOC(=O)NS(=O)(=O)c1sc(CCC)nc1-c1ccc(Cn2ccnc2C(C)(C)C)cc1 [Example 6, Butyl ((4-(4-((2-(tert-butyl)-1H-imidazol-1-yl)methyl)phenyl)-2-propylthiazol-5-yl)sulfonyl) carbamate] | 71 | ~1
8 | CCCCOC(=O)NS(=O)(=O)c1sc(CCC)nc1-c1ccc(Cn2ccnc2-c2nccs2)cc1 [Example 21, Butyl ((2-propyl-4-(4-((2-(thiazol-2-yl)-1H-imidazol-1-yl)methyl)phenyl)thiazol-5-yl)sulfonyl)carbamate] | 350 | 1
9 | CCCc1nc(-c2ccc(Cn3ccnc3C(C)O)cc2)c(S(=O)(=O)NC(=O)OC)s1 (centres unmarked) [Example 25, Methyl ((4-(4-((2-(1-hydroxyethyl)-1H-imidazol-1-yl)methyl)phenyl)-2-propylthiazol-5-yl)sulfonyl)carbamate] | 1600 | 
10 | COC(=O)NS(=O)(=O)c1sc(CC(C)C)nc1-c1ccc(Cn2ccnc2C2CC2)cc1 [Example 26, Methyl ((4-(4-((2-cyclopropyl-1H-imidazol-1-yl)methyl)phenyl)-2-isobutylthiazol-5-yl)sulfonyl)carbamate] | 99 | 13
11 | CCCCOC(=O)NS(=O)(=O)c1sc(CC(C)C)nc1-c1ccc(Cn2ccnc2C2CC2)cc1 [Example 27, Butyl ((4-(4-((2-cyclopropyl-1H-imidazol-1-yl)methyl)phenyl)-2-isobutylthiazol-5-yl)sulfonyl)carbamate] | 11 | 8
12 | CCCc1nc(-c2ccc(Cn3ccnc3C3CC3)cc2)c(S(=O)(=O)NC(=O)OC)s1 [Example 28, Methyl ((4-(4-((2-cyclopropyl-1H-imidazol-1-yl)methyl)phenyl)-2-propylthiazol-5-yl)sulfonyl)carbamate] | 274 | 20
13 | CCCCOC(=O)NS(=O)(=O)c1sc(CCC)nc1-c1ccc(Cn2ccnc2C2CC2)cc1 [Example 29, Butyl ((4-(4-((2-cyclopropyl-1H-imidazol-1-yl)methyl)phenyl)-2-propylthiazol-5-yl)sulfonyl)carbamate] | 36 | 15
14 | CCCCOC(=O)NS(=O)(=O)c1ccc(CC(C)C)cc1-c1ccc(Cn2ccnc2-c2nccs2)cc1 [Example 35B, Potassium (butoxycarbonyl) ((5-isobutyl-4′-((2-(thiazol-2-yl)-1H-imidazolyl)methyl)-[1,1′-biphenyl]-2-yl)sulfonyl)amide] | 6.7 | 7
15 | COC(=O)NS(=O)(=O)c1ccc(CC(C)C)cc1-c1ccc(Cn2ccnc2C(C)C)cc1 [Example 36, Methyl ((5-isobutyl-4′-((2-(isopropan-2-yl)-1H-imidazol-1-yl)methyl)-[1,1′-biphenyl]-2-yl)sulfonyl)carbamate] | 3.26 | 
16 | COC(=O)NS(=O)(=O)c1sc(CC(C)C)cc1-c1ccc(Cn2ccnc2C(C)(C)O)cc1 [Example 41] | 3.08 | 
17 | CCCCOC(=O)NS(=O)(=O)c1sc(CC(C)C)cc1-c1ccc(Cn2ccnc2C(C)(C)F)cc1 [Example 42] | 1.66 | 
18 | COC(=O)NS(=O)(=O)c1sc(CC(C)C)cc1-c1ccc(Cn2ccnc2C(C)(C)F)cc1 [Example 43] | 3.74 | 
19 | COCCOC(=O)NS(=O)(=O)c1sc(CC(C)C)cc1-c1ccc(Cn2ccnc2C(C)(C)C)cc1 [Example 44] | 2.54 | 
20 | CCCCOC(=O)NS(=O)(=O)c1sc(CCC)nc1-c1ccc(Cn2ccnc2C(C)(C)F)cc1 [Example 45, Butyl ((4-(4-((2-(2-fluoropropan-2-yl)-1H-imidazol-1-yl)methyl)phenyl)-2-propylthiazol-5-yl)sulfonyl)carbamate] | > 1000 | 
21 | CCCc1nc(-c2ccc(Cn3ccnc3C(C)(C)F)cc2)c(S(=O)(=O)NC(=O)OC)s1 [Example 46, Methyl ((4-(4-((2-(2-fluoropropan-2-yl)-1H-imidazol-1-yl)methyl)phenyl)-2-propylthiazol-5-yl)sulfonyl)carbamate] | > 1000 | 
22 | CCCCOC(=O)NS(=O)(=O)c1sc(CC(C)C)nc1-c1ccc(Cn2ccnc2C(C)(C)F)cc1 [Example 47, Butyl ((4-(4-((2-(2-fluoropropan-2-yl)-1H-imidazol-1-yl)methyl)phenyl)-2-isobutylthiazol-5-yl)sulfonyl)carbamate] | 56 | 
23 | COC(=O)NS(=O)(=O)c1sc(CC(C)C)nc1-c1ccc(Cn2ccnc2C(C)(C)F)cc1 [Example 48, Methyl ((4-(4-((2-(2-fluoropropan-2-yl)-1H-imidazol-1-yl)methyl)phenyl)-2-isobutylthiazol-5-yl)sulfonyl)carbamate] | 475 | 
